# According to patent publication US6475434B1, “Composition and methods for preventing and removing biofilm embedded microorganisms from the surface of medical devices” (Baylor College of Medicine, priority 1998, dated 2002):
# Tests used:
# [1] = tested on: Staphylococcus epidermidis; assay: Flush cultures of biofilm-colonised catheter lumens after treatment solutions (Example 1); type: cell-based
# Description: Seeding phase: A dynamic flow sterile system that consisted of an infusion bad containing a bacterial suspension of Staphylococcus epidermidis (4×10^5 cfu/ml of saline) that infused at equal (about 41 ml/hour) into the lumens of eight ethylene oxide gas sterilized, 7-french, 20 cm polyurethane, single-lumen catheters for 12 hours at room temperature. The catheters were covered plastic sheath to ensure sterility of the surfaces. The bacterial suspension drained from the catheters into beakers.
# Growth phase: The lumens of the four catheters were infused with sterile trypticase soy broth (“TSB”) at a rate of 10 ml/hour for 24 hours to allow for biofilm formation. The infused broth drained from the catheters into the beakers. […]
# The clamps were removed from each end of Catheters 1, 3, 5, and 7 and the treatment solutions were drained. […] Hundred microliter aliquots of the collected portions of the flushed TSB and 10-fold serial dilutions were inoculated onto chocolate agar plates and colony counts were determined after incubation of agar plates at 37° C. for 48 hours.
# [2] = tested on: Staphylococcus epidermidis; assay: Minimal bactericidal concentration for the studied strain; type: cell-based; settings: studied strain of Staphylococcus epidermidis
# Description: Treatment phase: The lumens of the eight catheters were treated with biofilm penetrating composition solutions as described in Table I. The N-acetylcysteine and rifampin are used at a concentration equivalent to ten times the corresponding minimal bactericidal concentration of the N-aceylcysteine and the rifampin for the studied strain of Staphylococcus epidermidis (3.1 mg/ml and 0.02 μg/ml respectively).
SMILES,"effect on biofilm and biofilm embedded microorganisms (in words) ([1]; Example 1 conclusion, 31 mg/ml in phosphate buffered saline)","antimicrobial activity against biofilm embedded microorganisms compared with rifampin (in words) ([1]; assessed by flush cultures, at the concentration used)",MBC [2]
CC(=O)N[C@@H](CS)C(=O)O [N-acetylcysteine],effectively penetrates and breaks-up the biofilm and kills biofilm embedded microorganisms,surpasses the antimicrobial activity of rifampin,3100 µg/mL
CO[C@H]1/C=C/O[C@@]2(C)Oc3c(C)c(O)c4c(O)c(c(/C=N/N5CCN(C)CC5)c(O)c4c3C2=O)NC(=O)/C(C)=C\C=C\[C@H](C)[C@H](O)[C@@H](C)[C@@H](O)[C@@H](C)[C@H](OC(C)=O)[C@@H]1C [rifampin],,,0.02 µg/mL
